Reference: patent US10807951B2, “mTORC1 modulators” (THE REGENTS OF THE UNIVERSITY OF CALIFORNIA, priority 2017, dated 2020)

Tests used:
LAMTOR5 = LAMTOR5 (Homo sapiens, UniProt O43504); assay: Rhodamine labeling with alkyne probe on purified Lamtor-Rag complexes; type: binding; conditions: excess unlabeled compound
Excerpt: (§1) FIGS. 8A-8B. (FIG. 8A) Structures of CC 2-11 and CC 1-44. CC 2-11 bears an alkyne group on a separate ring from the cysteine-reactive warhead. The presence of the alkyne group enables us to directly label the modified target protein (e.g. Lamtor5) with biotin or rhodamine groups, either in gels or in complex proteomes. […] Thus, CC 2-11 allows precise mapping of the target cysteines as well as accurate identification of the off-targets.
as §1, with “We also synthesized a” for “FIGS. 8A-8B. (FIG. 8A) Structures of”, “1-44 derivative, named” for “2-11 and”, “2-11, which” for “1-44. CC 2-11”, “warhead (FIG. 8A).” for “warhead.”, “will allow” for “allows”

autophagy [1] = assay: Immunoblotting for autophagic markers LC3b and p62 in HEK-293A cells; type: cell-based
Procedure: FIGS. 6A-6D. CC 1-44 inhibits mTORC1 signaling and activates autophagy. (FIG. 6A) Visual IP experiment monitoring binding of GFP-RagB to RFP-tagged, bead-bound Lamtor complex. […] (FIG. 6B) Immunofluorescence for endogenous RagA and LAMP2 in HEK-293A cells treated with DMSO, YP 1-44 or CC 1-44 for 2 h. […] (FIG. 6C) Immunofluorescence for endogenous mTOR and LAMP2 in HEK-293A cells treated with DMSO or CC 1-44 for 2 h. […] (FIG. 6D) Immunoblotting for autophagic markers LC3b and p62 from HEK-293A cells treated with DMSO (lane 1) or CC 1-44 (lane 3) for 2 h.
In cells treated with CC 1-44, autophagy becomes activated within 1 h, as judged by accumulation of cleaved LC3b and increased degradation of p62 (FIG. 6D).

autophagy [2] = assay: Autophagy induction in tissues of injected mice; type: in vivo; conditions: 100 mg/kg vs rapamycin 10 mg/kg, heart, skeletal muscle, kidney
mTORC2 = assay: p-AKT signaling in Hela cells by immunoblotting; type: cell-based; conditions: up to 50 μM
mTORC1 = mTORC1 signaling in tissues of injected mice; conditions: injection 100 mg/kg, heart, skeletal muscle, kidney
[3] = test system: mTOR localization to LAMP2-positive lysosomes; assay: mTORC1 recruitment assay, immunofluorescence in HeLa cells; type: cell-based; conditions: 50 μM, 1 h, amino acid stimulation
Procedure: (§2) Next, we sought to determine whether YP 1-44 had expected cellular effects in disrupting the TORC1 complex, recruitment of TORC1 to the lysosome, and TORC1 signaling. We treated Hela cells with YP 1-44 for 1 h with and without amino acid stimulation. […] This finding is consistent with the role of Lamtor as an obligate scaffold not only for mTORC1 but also for the Rag GTPases at the lysosome. […] Thus, our results establish that YP 1-44 abolishes mTORC1 signaling both in vitro and in live cells by preventing mTORC1 localization to the lysosome, and that this action occurs via disruption of the Lamtor-Rag scaffold.
HeLa cells were plated on fibronectin-coated glass coverslips in 6-well plates (35 mm diameter/well), at 300,000-500,000 cells/well. 12-16 hours later, cells were subjected to amino acid depletion for 1 h in the presence of 50 uM compounds or an equivalent volume of DMSO, restimulated with a complete amino acid mix for 10 minutes, and fixed in 4% paraformaldehyde (in PBS) for 15 min at RT. The coverslips were rinsed twice with PBS and cells were permeabilized with 0.1% (w/v) Saponin in PBS for 10 min. […]

RagC and RagA = assay: Rag GTPase lysosomal localization, immunofluorescence in HeLa cells; type: cell-based; conditions: 50 μM, 1 h
Procedure: as §2
HeLa cells were plated on fibronectin-coated glass coverslips in 6-well plates (35 mm diameter/well), at 300,000-500,000 cells/well. 12-16 hours later, cells were subjected to amino acid depletion for 1 h in the presence of 50 uM compounds or an equivalent volume of DMSO, restimulated with a complete amino acid mix for 10 minutes, and fixed in 4% paraformaldehyde (in PBS) for 15 min at RT. The coverslips were rinsed twice with PBS and cells were permeabilized with 0.1% (w/v) Saponin in PBS for 10 min. After rinsing twice with PBS, the slides were incubated with primary antibody in 5% normal donkey serum for 1 hr at room temperature, rinsed four times with PBS, and incubated with fluorophore-conjugated secondary antibodies produced in goat or donkey (Life Technologies, diluted 1:1000 in 5% normal donkey serum) for 45 min at room temperature in the dark, washed four times with PBS. Coverslips were mounted on glass slides using Vectashield (Vector Laboratories) and imaged on a spinning disk confocal system (Andor Revolution on a Nikon Eclipse Ti microscope).

SMILES	competition of CC 2-11 rhodamine labeling signal (LAMTOR5)	autophagy (LC3b band increase, p62 band disappearance) (autophagy [1]; HEK-293A cells, 2 h)	total autophagic flux (autophagy [1]; HEK-293A cells, 2 h, with Bafilomycin A)	time to autophagy activation (accumulation of cleaved LC3b, increased degradation of p62) (autophagy [1]; treated cells)	autophagy induction compared to rapamycin (autophagy [2])	autophagy induction compared to rapamycin (autophagy [2]; listed as C 1-44)	effect on canonical mTORC2 substrate pAKT (mTORC2)	mTORC1 signaling as assessed by phospho-S6 and 4EBP1 (mTORC1)	amino acid-induced mTOR localization to LAMP2-positive lysosomes [3]	amino acid-induced mTOR localization to LAMP2-positive lysosomes ([3]; listed as YP1-44)	RagA localization to LAMP2-positive lysosomes (RagC and RagA)	RagC localization to LAMP2-positive lysosomes (RagC and RagA)	RagA localization to LAMP2-positive lysosomes (RagC and RagA; listed as YP1-44)	RagC localization to LAMP2-positive lysosomes (RagC and RagA; listed as YP1-44)
C=CC(=O)N1CCc2c(OCc3cc(C(F)(F)F)cc(C(F)(F)F)c3)cccc21 [CC 1-44]	competes	activation of autophagy	increased	≤ 1 h	superior potency to rapamycin	much stronger autophagy induction as compared to rapamycin	did not affect	dramatic inhibition of mTORC1 signaling						
C=CC(=O)n1ccc2ccccc21 [YP 1-44]									disrupts amino acid-induced mTOR localization	mTORC1 recruitment fails	no longer localized to the lysosome	no longer localized to the lysosome	causes dispersion of RagA from LAMP2-positive lysosomes	causes dispersion of RagC from LAMP2-positive lysosomes
